Series [1] deals with ASD aggression toward others or self and paranoia/social isolation. The settings on record: for aggression and self-injury: Example 1: ASD person (when on the combination); for aggression and self-injury / paranoia/social isolation behavior: combination dosed twice daily as in TABLE 1; for loss of effectiveness (tachyphylaxis): after two years use.
The test system of another series is autistic patients. As to conditions: oxcarbazepine alone vs. placebo, 2011 to 2021; cited from earlier work.

Regarding `CNCCC(Oc1ccc(C(F)(F)F)cc1)c1ccccc1` (stereo not drawn) [fluoxetine], in series [1] (Example 1: ASD person), the “ability to attend school” value was “unable to attend schooling” and the paranoia/social isolation behavior result is given as “remained paranoid”. Moreover, the aggression and self-injury result in series [1] is given as “self-injury slightly decreased”.

Take `Cc1nc2n(c(=O)c1CCN1CCC(c3noc4cc(F)ccc34)CC1)CCCC2` [risperidone]: the “self-injury behavior, aggression toward others and social isolation symptoms” value in series [1] (Example 3: adult ASD, combination dosed early morning and after 5:00 pm) was “could no longer be successfully treated”. Moreover, the “loss of effectiveness (tachyphylaxis)” value in series [1] (summary over the ASD subjects) is reported as “tachyphylactic loss of effectiveness”.

Regarding `NC(=O)N1c2ccccc2CC(=O)c2ccccc21` [oxcarbazepine], the “adverse effects in autistic subjects” value in the series with autistic patients is reported as “so many adverse effects in autistic subjects that they drop out of the study”.

As to `O=C1CCc2ccc(OCCCCN3CCN(c4cccc(Cl)c4Cl)CC3)cc2N1` [aripiprazole], in series [1] (Example 1: ASD person), the “dyskinesia / tardive dyskinesia and dystonias” value was “developed tardive dyskinesia and dystonias”; the paranoia/social isolation behavior entry is “improvement in paranoia/social isolation behaviors”. In series [1], the aggression and self-injury entry was “successful alleviation of aggression”. For the same compound, the “drug-induced hallucinations, aggression and paranoia” value in series [1] (Example 1: within a half hour of taking the drug, after 1 and ½ years of use) is “induced hallucinations, severe aggression and paranoia”. Besides, the “loss of effectiveness (tachyphylaxis)” value in series [1] (summary over the ASD subjects) is “tachyphylactic loss of effectiveness”. Moreover, the “tardive dyskinesia / dystonic side effects” value in series [1] (summary over the ASD subjects, long-term use (two years for the antipsychotics)) is given as “developed tardive dyskinesia”.

Values taken from patent US12161609B2, “Composition and method for treating autism spectrum disorder (ASD) symptoms of paranoia with self isolation and/or aggression” (priority 2021, dated 2024).
